Measurements taken from patent US20020142982A1, “Method for regulating angiogenesis” (priority 1999, published 2002).
Values joined by “and” are separate entries in the source; they are usually repeats but may differ in a detail not shown here. Equal values may be shown once.

Columns and labels:
[1] = test system: HUVEC; experiment: HUVEC morphogenesis on MATRIGEL (in vitro angiogenesis, tubular length); format: cell-based, human; settings: 12-18 hours; SPM and C1P 1 μM
Experimental: FIG. 42 is microscope images showing morphogenesis of HUVEC cells plated on Matrigel. HUVEC cells were transduced with 50 MOI of indicated viruses; a,b=none, c=β-gal, d=wild-type EDG-1, e=T236AEDG-1, f=T236AEDG-1+wild-type Akt. Total viral load in c-f is normalized. In vitro angiogenesis assay on Matrigel was conducted in the presence (b to f) or not (a) of 100 nM S1P. The numbers are mean±s.e.m of total tubular length per microscopic field (n=2). Scale bar=170 μm.
To investigate SPP induction of angiogenesis, 200 μL aliquots of thawed MATRIGEL were polymerized in 24-well tissue culture plates. HUVEC were trypsinized, resuspended in plain M199 medium containing soybean trypsin inhibitor (10 mg/mL, Sigma Chemical Co., St. Louis, Mo.). Following centrifugation (250 g; 5 minutes), cells were resuspended in plain M199 supplemented with 2% CFBS at a density of 1.5×10^5 cells/mL. 200 μL of cell suspension were seeded on these gels in the presence or absence of SPP (Biomol), for 12-18 hours. Cells were rinsed two times with phosphate buffered saline (PBS), and then fixed with 4% formaldehyde. Results were recorded photographically using a Zeiss Axiovert 100TV microscope equipped with a 5× objective. Five random fields of each well were photographed, and total tubular length was quantified by image analysis (Kinsella, J. et al., Experimental Cell Research 199: 56-62 (1992); Gamble J., et al., J. Cell Biol. 121: 931-943 (1993)).
Scale bar represents 52 microns. These quantitative data are the mean±standard deviation of duplicate determinations from a representative experiment which was repeated at least three times. SPP concentrations (in μM) are indicated in parentheses. For SPP +PTx, HUVEC were pretreated with PTx (200 ng/mL) for 2 hours, trypsinized, plated onto MATRIGEL, then stimulated with 500 nM SPP in the presence of PTx (20 ng/mL) for 16-18 hours. For SPP+C3, HUVEC were pretreated with C3 exoenzyme (10 μg/mL) for 48 hours, trypsinized, plated onto MATRIGEL, stimulated with 500 nM SPP together with the same concentration of C3 exotoxin. SPM, sphingomyelin (1 μM). For C1P, C8-ceramide-1-phosphate (1 μM). The maximal effects achieved by 1 μM SPP was indistinguishable from the positive control medium which contained FBS.
In these experiments, HUVEC were plated onto MATRIGEL in the presence of the same amount of corresponding antibodies without or with 500 nM SPP. 16 hours later, total length of HUVEC networks formed on MATRIGEL was quantified.

[2] = test system: EDG-1; experiment: EDG-1 phosphorylation in 32P-labeled HEK293EDG-1 cells; format: cell-based; settings: 100 nM S1P
Experimental: FIG. 26 is an SDS PAGE showing that S1P treatment induces EDG-1 phosphorylation. HEK293EDG-1 were labeled with [^32P]-orthophosphate, and stimulated with 100 nM S1P for indicated times. Some cultures were treated with 10 μM LY294002.
(§1) To label the EDG-1 receptor in HUVEC and HEK293EDG-1 cells, they were pre-incubated in phosphate-free DMEM (GIBCO-BRL) for 2 hr. Subsequently, cells were labeled with [^32P] orthophosphate (80 μCl/ml) for 3 hr. To examine the effect of P1-3 kinase, cultures were treated with wortmannin (100 nM) or LY294002 (10 μM) during tine last hour of labeling. After SPP stimulation, ^32P-labeled EDG-1 receptor was immunoprecipitated with either chicken anti-EDG-1 1gY or anti-M2, resolved on SDS-PAGE, and visualized by autoradiography.

[3] = test system: EDG-1; experiment: Phosphorylation of endogenous EDG-1 in 32P-labeled HUVEC; format: cell-based, human; settings: S1P 5-60 min
Experimental: (Upper panel) Normal HUVEC cells were labelled with [^32P]-orthophosphate, and stimulated with 100 nM S1P for indicated times. Cell extracts were immunoprecipitated with the affinity-purifed anti-EDG-1 IgY, separated on a SDS-PAGE and autoradiographed. (Middle panel) Some cells were treated with 10 μM LY294002 or 100 nM Wortmannin prior to stimulation with S1P and EDG-1 phosphorylation was examined as above. (Lower panel) Some cells were transduced with 100 MOI of wild-type (wt)-Akt, dominant negative (dn)-Akt or the β-gal virus for 12 h prior to stimulation with S1P. EDG-1 phosphorylation was examined as above.
as §1
Chicken anti-human EDG-1 antibodies against human EDG-1 polypeptide expressed in E. coli were raised in Aves Labs, Tigard, Oreg. This antibody specifically detected EDG-1 polypeptide in HUVEC cells and transfected HEK293 cells. […]

[4] = biological target: EDG-1 (Homo sapiens, UniProt P21453); settings: 32P-SPP, HEK293EDG-1 cells; read-out: dissociation constant, Kd, of SPP binding to EDG-1; cited from earlier work
Sequence of EDG-1 (Homo sapiens, UniProt P21453) (P21453 whole entry): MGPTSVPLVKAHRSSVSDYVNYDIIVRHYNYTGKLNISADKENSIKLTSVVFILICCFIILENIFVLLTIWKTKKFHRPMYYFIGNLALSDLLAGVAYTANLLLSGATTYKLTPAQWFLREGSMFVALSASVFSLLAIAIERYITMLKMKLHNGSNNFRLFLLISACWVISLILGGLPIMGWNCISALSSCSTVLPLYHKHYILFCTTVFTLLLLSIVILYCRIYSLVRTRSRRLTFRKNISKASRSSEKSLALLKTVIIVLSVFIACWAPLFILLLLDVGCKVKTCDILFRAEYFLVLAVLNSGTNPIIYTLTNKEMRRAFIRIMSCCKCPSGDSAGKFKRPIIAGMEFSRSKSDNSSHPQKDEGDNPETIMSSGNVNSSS

SMILES: CCCCCCCCCCCCC/C=C/[C@@H](O)[C@@H](N)COP(=O)(O)O [SPP, sphingosine-1-phosphate]
- HUVEC morphogenesis on MATRIGEL (tubular length) [1]: promoted HUVEC morphogenesis in a dose-dependent manner
- phosphorylation of EDG-1 [2]: induced a time-dependent phosphorylation
- radiolabeling of the endogenous EDG-1 polypeptide [3]: increased
- Kd [4]: 8.1 nM and 8 nM
